How the values were obtained:
TLR1 = target: T1, TLR1 (Mus musculus, UniProt Q9EPQ1); assay: TLR multiplex sensor, EIS film resistance before/after exposure (Example 5), TLR1 sensor; format: binding; conditions: exposure 20 minutes
T1 sequence (Q9EPQ1 26-795): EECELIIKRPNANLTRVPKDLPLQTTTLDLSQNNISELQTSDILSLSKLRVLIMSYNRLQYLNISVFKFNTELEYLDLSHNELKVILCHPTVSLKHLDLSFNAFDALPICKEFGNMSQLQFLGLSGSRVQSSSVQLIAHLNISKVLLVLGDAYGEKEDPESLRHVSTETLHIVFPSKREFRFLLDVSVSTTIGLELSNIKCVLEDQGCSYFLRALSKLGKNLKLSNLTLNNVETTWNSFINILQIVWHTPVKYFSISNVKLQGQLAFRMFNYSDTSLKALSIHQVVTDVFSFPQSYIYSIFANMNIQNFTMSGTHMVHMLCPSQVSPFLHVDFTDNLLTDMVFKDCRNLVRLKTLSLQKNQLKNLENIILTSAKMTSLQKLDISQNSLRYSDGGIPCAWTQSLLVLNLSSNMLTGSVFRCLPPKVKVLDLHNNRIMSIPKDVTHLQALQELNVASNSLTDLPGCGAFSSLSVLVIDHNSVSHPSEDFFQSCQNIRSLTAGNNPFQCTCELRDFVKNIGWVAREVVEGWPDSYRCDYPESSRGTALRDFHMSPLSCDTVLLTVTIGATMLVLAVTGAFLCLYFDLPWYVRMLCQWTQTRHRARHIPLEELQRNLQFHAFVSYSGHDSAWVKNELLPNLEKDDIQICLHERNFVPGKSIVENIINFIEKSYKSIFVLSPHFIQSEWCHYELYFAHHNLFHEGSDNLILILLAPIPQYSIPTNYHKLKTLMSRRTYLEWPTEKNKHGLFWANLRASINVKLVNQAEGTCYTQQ
Experimental: (§1) For each multiplex TLR sensor, 5 separate gold electrodes were used for binding TLR 1 to 5. The 5 modified electrodes/sensors were exposed to the analyte solution and evaluated one by one using potentiostats and electrochemical cells.
(§2) The preparation of each TLR biosensor was evaluated using EIS. It is understood that cyclic voltammetry as well as electrochemical impedance microscopy can also be used for monitoring the modification. […] Ethanolamine was then applied to deactivate unreacted LPA. Due to dissociation of unspecific absorbed TLR, the Rct dropped slightly. Experimental curves were evaluated using a model to obtain the Rct values, which can be seen at FIG. 9. Measurements from at least triplicated samples prepared were used to obtain statistic information.
(§3) The TLR1 sensor was exposed to an E. coli K12 whole-cell buffer solution for 20 minutes. The sensor was then removed, washed thoroughly and characterized in the electrochemical cell measuring the Rct again. The difference in Rct before and after exposure is the response triggered by the target. The same protocol was carried out for all remaining TLRs (TLRs 2-5) to obtain one set of pattern for E. coli K12 (FIGS. 10b to 10e). Multiple sets were investigated for statistical relevance. […]

TLR3 = target: T2, TLR3 (Mus musculus, UniProt Q99MB1); assay: TLR multiplex sensor, EIS film resistance before/after exposure (Example 5), TLR3 sensor; format: binding; conditions: exposure 20 minutes
T2 sequence (Q99MB1 26-905): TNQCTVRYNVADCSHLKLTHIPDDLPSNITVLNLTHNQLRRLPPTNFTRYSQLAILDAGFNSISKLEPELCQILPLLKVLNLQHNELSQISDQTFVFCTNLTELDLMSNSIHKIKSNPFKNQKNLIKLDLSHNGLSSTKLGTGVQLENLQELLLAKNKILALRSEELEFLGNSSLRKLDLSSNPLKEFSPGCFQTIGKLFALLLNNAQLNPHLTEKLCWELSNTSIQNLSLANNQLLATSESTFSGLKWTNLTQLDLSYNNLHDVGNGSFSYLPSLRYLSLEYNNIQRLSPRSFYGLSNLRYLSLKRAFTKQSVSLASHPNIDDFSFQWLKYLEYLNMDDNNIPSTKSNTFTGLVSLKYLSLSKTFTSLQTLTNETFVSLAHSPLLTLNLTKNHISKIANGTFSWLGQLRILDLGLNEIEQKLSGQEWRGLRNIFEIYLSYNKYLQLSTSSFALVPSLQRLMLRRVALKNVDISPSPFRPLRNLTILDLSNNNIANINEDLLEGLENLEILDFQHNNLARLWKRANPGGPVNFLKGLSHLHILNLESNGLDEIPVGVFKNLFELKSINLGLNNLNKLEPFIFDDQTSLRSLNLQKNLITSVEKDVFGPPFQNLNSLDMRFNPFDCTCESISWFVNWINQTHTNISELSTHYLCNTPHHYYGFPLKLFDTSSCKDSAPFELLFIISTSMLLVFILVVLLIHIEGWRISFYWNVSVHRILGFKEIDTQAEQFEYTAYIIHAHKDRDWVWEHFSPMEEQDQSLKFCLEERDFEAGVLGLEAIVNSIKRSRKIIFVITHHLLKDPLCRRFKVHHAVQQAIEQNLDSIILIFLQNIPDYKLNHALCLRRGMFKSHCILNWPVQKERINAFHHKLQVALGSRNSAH
Experimental: as §1, §2, §3

Substance: Pam3CSK4
- delta Rct % (TLR1): 20%
- delta Rct % (TLR3): limited responses

Reference: patent publication US10794932B2, “Biosensor for the detection of a biological target, and method for manufacturing the same” (The Governing Council of The University of Toronto, priority 2016, dated 2020)
